Data taken from BindingDB's records for doi:10.1016/j.bmc.2009.08.006 (Universitat de Barcelona, 2009).

Target: 5-hydroxytryptamine receptor 6 (Homo sapiens, UniProt P50406)
Assay: 5-HT6 Binding Assay
Conditions: pH 7.4; 37 °C
Method: The incubation was initiated by addition of membrane to reaction buffer contained radioligand in the presence of test compound. And the incubation time was 60 min at 37 deg C. After incubation, the membranes were collected onto polyethylenimine-pretreated glass fiber filters. Radioactivity was determined by scintillation counting. Nonspecific binding was determined with 100 uM serotonin. Competition binding data were analyzed by using the LIGAND program, and assays were performed in triplicate determinations for each point.

Chain of 5-hydroxytryptamine receptor 6 (P50406 whole entry): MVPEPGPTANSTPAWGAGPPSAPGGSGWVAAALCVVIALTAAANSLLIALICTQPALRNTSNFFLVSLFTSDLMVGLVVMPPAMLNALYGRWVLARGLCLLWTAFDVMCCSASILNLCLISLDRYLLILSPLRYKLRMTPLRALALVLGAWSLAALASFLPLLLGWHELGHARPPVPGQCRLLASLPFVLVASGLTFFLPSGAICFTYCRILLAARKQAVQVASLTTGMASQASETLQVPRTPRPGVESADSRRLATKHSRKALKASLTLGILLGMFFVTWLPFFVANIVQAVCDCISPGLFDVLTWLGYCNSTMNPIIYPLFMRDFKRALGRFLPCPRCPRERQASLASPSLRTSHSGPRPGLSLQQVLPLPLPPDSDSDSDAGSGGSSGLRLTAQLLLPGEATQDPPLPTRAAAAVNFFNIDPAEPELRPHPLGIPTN

Structure (SMILES) | IC50 [nM] | Ki [nM] | EC50 [nM]
CC1=Cc2cc(NS(=O)(=O)c3c(Cl)nc4sccn34)ccc2C1 [indenylsulfonamide, 47+48] | 3000 | 43 | –
CN(C)Cc1cn(S(=O)(=O)c2ccccc2)c2ccccc12 | – | – | 880
CN1CCC[C@H]1Cc1c[nH]c2ccc(NS(=O)(=O)c3ccc(C(F)(F)F)cc3)cc12 [pyrrolidinylindole, (S)-5b] | – | – | 21.6
CN1CCC(c2cn(S(=O)(=O)c3ccccc3Br)c3ccccc23)C1 (centres undefined) | – | – | 53.3
O=S(=O)(Nc1ccc2[nH]cc(C[C@H]3CCCN3)c2c1)c1ccccc1I [(R)-5a] | – | 1 | 0.4
CN(C)CCc1c[nH]c2ccc(NS(=O)(=O)c3ccc4c(Cl)cccc4c3)cc12 | – | – | 0.29
Cc1cn(S(=O)(=O)c2ccc(N)cc2)c2ccccc12 [4-(3-methyl-1H-indole-1-sulfonyl)aniline, 8] | – | – | 320
